Laboratory results from US20090264433A1, “Compounds, Compositions and Methods Comprising Triazine Derivatives” (Institute for OneWorld Health, priority 2008, published 2009).
Structures can show the parent of a compound that is named as a salt.

target: T1, CFTR channel in human colonic T84 cells (Homo sapiens, UniProt P13569); experiment: T84 assay (FLIPR membrane potential dye, forskolin/IBMX-stimulated CFTR); assay type: cell-based; details: average of at least 2 runs unless annotated n = 1
T1 construct: results in the phosphorylation and opening of CFTR anion channels; host or cells: human colonic T84 cells
T1 sequence (P13569 whole entry): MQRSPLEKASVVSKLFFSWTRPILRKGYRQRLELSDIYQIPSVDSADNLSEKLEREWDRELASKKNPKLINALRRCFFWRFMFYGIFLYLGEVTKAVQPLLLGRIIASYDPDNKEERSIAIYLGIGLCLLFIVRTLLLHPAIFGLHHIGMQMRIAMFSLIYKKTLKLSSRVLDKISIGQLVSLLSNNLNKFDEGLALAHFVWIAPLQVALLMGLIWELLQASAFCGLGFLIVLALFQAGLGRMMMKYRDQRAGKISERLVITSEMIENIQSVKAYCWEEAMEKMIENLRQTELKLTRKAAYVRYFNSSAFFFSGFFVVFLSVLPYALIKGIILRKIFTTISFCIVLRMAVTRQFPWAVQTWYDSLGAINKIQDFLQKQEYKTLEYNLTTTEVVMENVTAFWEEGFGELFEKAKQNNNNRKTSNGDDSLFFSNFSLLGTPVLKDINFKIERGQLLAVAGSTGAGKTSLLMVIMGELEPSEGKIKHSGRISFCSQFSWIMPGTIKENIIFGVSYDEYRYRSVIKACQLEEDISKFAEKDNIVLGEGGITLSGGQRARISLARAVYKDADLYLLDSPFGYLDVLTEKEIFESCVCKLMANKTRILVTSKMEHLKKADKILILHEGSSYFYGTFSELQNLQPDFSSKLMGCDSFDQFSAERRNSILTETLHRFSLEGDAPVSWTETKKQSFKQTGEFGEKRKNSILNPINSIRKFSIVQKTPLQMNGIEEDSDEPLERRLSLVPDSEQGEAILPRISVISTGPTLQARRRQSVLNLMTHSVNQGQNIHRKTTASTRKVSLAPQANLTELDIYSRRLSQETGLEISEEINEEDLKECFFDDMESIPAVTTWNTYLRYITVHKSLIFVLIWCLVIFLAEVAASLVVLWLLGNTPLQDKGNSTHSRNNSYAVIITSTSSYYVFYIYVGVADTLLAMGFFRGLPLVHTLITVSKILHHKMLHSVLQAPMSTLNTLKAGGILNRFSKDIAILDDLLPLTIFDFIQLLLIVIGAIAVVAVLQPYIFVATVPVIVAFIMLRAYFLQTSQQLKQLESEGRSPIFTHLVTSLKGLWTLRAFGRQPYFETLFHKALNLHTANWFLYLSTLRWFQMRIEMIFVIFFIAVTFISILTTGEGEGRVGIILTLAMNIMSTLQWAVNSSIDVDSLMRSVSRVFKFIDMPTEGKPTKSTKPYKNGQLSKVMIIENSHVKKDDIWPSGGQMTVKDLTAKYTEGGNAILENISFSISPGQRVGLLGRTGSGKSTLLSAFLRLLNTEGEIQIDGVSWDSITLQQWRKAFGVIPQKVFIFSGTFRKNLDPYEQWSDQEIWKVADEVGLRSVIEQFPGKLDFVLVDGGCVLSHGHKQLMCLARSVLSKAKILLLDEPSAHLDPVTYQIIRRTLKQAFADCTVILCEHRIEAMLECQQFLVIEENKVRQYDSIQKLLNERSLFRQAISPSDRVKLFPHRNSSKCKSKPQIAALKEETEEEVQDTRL
Protocol: (§1) For example, Human colonic T84 cells can be acquired from the European Collection of Cell Cultures (ECACC) and grown in standard culture conditions as described by the supplier. On the day before assay 25,000 T84 cells per well are plated into standard black walled, clear bottom 384-well assay plates in standard growth medium consisting of DMEM:F12 with 10% FBS and incubated overnight. On the day of the assay the plates are washed using a standard assay buffer (HBSS with 10 mM Hepes) and incubated for 15 minutes in serum free cell culture medium before the addition of a commercially available membrane potential sensitive fluorescent dye (FLIPR Red membrane potential dye, Molecular Devices Corporation). T84 cells are incubated with the FLIPR Red membrane potential dye for 45 minutes in the presence and absence of test compound before being transferred to a commercially available fluorescence imaging plate reader (FLIPR384, Molecular Devices Corporation). Fluorescence levels are monitored continuously every second for 150 seconds; after an initial 10 second baseline, CFTR channel activity is stimulated through the addition of 10 μM forskolin in the presence of 100 μM of the phosphodiesterase inhibitor iso-butyl-methylxanthine (IBMX). Addition of the forskolin leads to the activation of intracellular adenylyl cylase 1, elevating cAMP levels and results in the phosphorylation and opening of CFTR anion channels. CFTR channel opening causes chloride ion efflux and subsequent depolarization of the cells, which is measured by an increase in fluorescence. CFTR inhibitor compounds prevent cell depolarization and the associated increase in fluorescence.
as §1, with “Human colonic” for “For example, Human colonic”, “T84 cells are acquired from” for “T84 cells can be acquired from”, “(ECACC) and are grown in” for “(ECACC) and grown in”

IC50 | Structure (SMILES)
4.18 µM | CN(Cc1ccc(COc2ncc(-c3cc(Cl)c(O)c(Cl)c3)nn2)cc1)Cc1cccc(-c2ncccn2)c1 [Compound 205, 2,6-dichloro-4-(3-(4-((methyl(3-(pyrimidin-2-yl)benzyl)amino)methyl)benzyl-oxy)-1,2,4-triazin-6-yl)phenol]
13.9 µM | Oc1c(Cl)cc(-c2cnc(OCc3ccc(CN4CCC(Cc5ccccc5)CC4)cc3)nn2)cc1Cl [Compound 168, 4-(3-(4-((4-benzylpiperidin-1-yl)methyl)benzyloxy)-1,2,4-triazin-6-yl)-2,6-dichlorophenol]
18.9 µM | Oc1c(Cl)cc(-c2cnc(OCc3ccc(CNC(CN4CCCC4)c4ccccc4)cc3)nn2)cc1Cl (stereo not drawn) [Compound 194, 2,6-dichloro-4-(3-(4-((1-phenyl2-(pyrrolidin-1-yl)ethylamino)methyl)benzyloxy)-1,2,4-triazin-6-yl)phenol]
2.13 µM | CCN(Cc1ccccc1)Cc1ccc(COc2ncc(-c3cc(Cl)c(O)c(Cl)c3)nn2)cc1 [Compound 192, 4-(3-(4-((benzyl(ethyl)amino)methyl)benzyloxy)-1,2,4-triazin-6-yl)-2,6-dichlorophenol]
3.08 µM | Oc1c(Cl)cc(-c2cnc(OCc3ccc(CN4CCc5ccccc5C4)cc3)nn2)cc1Cl [Compound 166]
14.4 µM | CN(Cc1ccc(COc2ncc(-c3cc(Cl)c(O)c(Cl)c3)nn2)cc1)C(c1ccccc1)c1ccccc1 [Compound 171, 4-(3-(4-((benzhydryl(methyl)amino)methyl)benzyloxy)-1,2,4-triazin-6-yl)-2,6-dichlorophenol]
4.94 µM | CN(Cc1ccc(COc2ncc(-c3cc(Cl)c(O)c(Cl)c3)nn2)cc1)Cc1ccc(F)c(F)c1 [Compound 184, 2,6-dichloro-4-(3-(4-(((3,4-difluorobenzyl)(methyl)amino)methyl)benzyloxy)-1,2,4-triazin-6-yl)phenol]
8.88 µM | Oc1c(Cl)cc(-c2cnc(OCc3ccc(CN4CCN(CCc5ccccc5)CC4)cc3)nn2)cc1Cl [Compound 152, 2,6-dichloro-4-(3-(4-((4-phenethylpiperazin-1-yl)methyl)benzyloxy)-1,2,4-triazin-6-yl)phenol]
9.94 µM | CN(C)CCOc1ccc(CN(C)Cc2ccc(COc3ncc(-c4cc(Cl)c(O)c(Cl)c4)nn3)cc2)cc1 [Compound 198, 2,6-dichloro-4-(3-(4-(((4-(2-(dimethylamino)ethoxy)benzyl)(methyl)amino)methyl)benzyloxy)-1,2,4-triazin-6-yl)phenol]
4.72 µM | CN(Cc1ccc(COc2ncc(-c3cc(Cl)c(O)c(Cl)c3)nn2)cc1)Cc1ccc2ncccc2c1 [Compound 189, 2,6-dichloro-4-(3-(4-((methyl(quinolin-6-ylmethyl)amino)methyl)benzyl-oxy)-1,2,4-triazin-6-yl)phenol]
18.3 µM | CN(Cc1ccc(COc2ncc(-c3cc(Cl)c(O)c(Cl)c3)nn2)cc1)CC(O)c1ccccc1 (stereo not drawn) [Compound 161, 2,6-dichloro-4-(3-(4-(((2-hydroxy-2-phenylethyl)(methyl)amino)methyl)benzyloxy)-1,2,4-triazin-6-phenol, formate salt]

Further lines, the molecule ahead of its results:

Structure (SMILES) | IC50
Cc1ccc(OCc2ncc(-c3cc(Br)c(O)c(Br)c3)nn2)c2c1CCC2 [Compound 45, 2,6-dibromo-4-(3-((7-methyl-2,3-dihydro-1H-inden-4-yloxy)methyl)-1,2,4-triazin-6-yl)phenol] | 14.1 µM
Oc1c(Br)cc(-c2cnc(OCc3cccc4ccccc34)nn2)cc1Br [Compound 13, 2,6-dibromo-4-(3-(naphthalen-1-ylmethoxy)-1,2,4-triazin-6-yl)phenol] | 0.88 µM
Oc1c(Br)cc(-c2cnc(OCc3ccc(F)cc3Cl)nn2)cc1Br [Compound 9, 2,6-dibromo-4-(3-(2-chloro-4-fluorobenzyloxy)-1,2,4-triazin-6-yl)phenol] | 0.77 µM
CN(C)c1cccc(COc2ncc(-c3cc(Cl)c(O)c(Cl)c3)nn2)c1 [Compound 119, 2,6-dichloro-4-(3-(3-(dimethylamino)benzyloxy)-1,2,4-triazin-6-yl)phenol] | 3.4 µM
Oc1c(Br)cc(-c2cnc(C(O)(c3ccccc3)c3ccccc3)nn2)cc1Br [Compound 32, 2,6-dibromo-4-(3-(hydroxydiphenylmethyl)-1,2,4-triazin-6-yl)phenol] | 4.93 µM
O=C(c1cccc(C(F)(F)F)c1)N1CCN(Cc2cc(Cl)ccc2OCc2ncc(-c3cc(Br)c(O)c(Br)c3)nn2)CC1 [Compound 126, (4-(5-chloro-2-((6-(3,5-dibromo-4-hydroxyphenyl)-1,2,4-triazin-3-yl)methoxy)benzyl)piperazin-1-yl)(3-(trifluoromethyl)phenyl)methanone] | 5.44 µM
Cc1cc(OCc2ncc(-c3cc(Br)c(O)c(Br)c3)nn2)cc(C)c1Br [Compound 54, 2,6-dibromo-4-(3-((4-bromo-3,5-dimethylphenoxy)methyl)-1,2,4-triazin-6-yl)phenol] | 22 µM
Oc1c(Br)cc(-c2cnc(OCCc3ccccc3Cl)nn2)cc1Br [Compound 94, 2,6-dibromo-4-(3-(2-chlorophenethoxy)-1,2,4-triazin-6-yl)phenol] | 0.34 µM
Oc1c(Cl)cc(-c2cnc(OCCc3ccc(Cl)cc3)nn2)cc1Cl [Compound 112, 2,6-dichloro-4-(3-(4-chlorophenethoxy)-1,2,4-triazin-6-yl)phenol] | 0.17 µM
Oc1c(Cl)cc(-c2cnc(NCc3ccc(Cl)cc3Cl)nn2)cc1Cl [Compound 134, 2,6-dichloro-4-(3-(2,4-dichlorobenzylamino)-1,2,4-triazin-6-yl)phenol, formate salt] | 9.65 µM
Cc1cc(Br)c(OCc2ncc(-c3cc(Br)c(O)c(Br)c3)nn2)c2c1CCC2 [Compound 46, 2,6-dibromo-4-(3-((5-bromo-7-methyl-2,3-dihydro-1H-inden-4-yloxy)methyl)-1,2,4-triazin-6-yl)phenol] | 14.3 µM
Oc1c(Cl)cc(-c2cnc(OCc3ccc(CN4CCN(c5ccc(Cl)cc5Cl)CC4)cc3)nn2)cc1Cl [Compound 150, 2,6-dichloro-4-(3-(4-((4-(2,4-dichlorophenyl)piperazin-1-yl)methyl)benzyloxy)-1,2,4-triazin-6-yl)phenol] | 2.01 µM
Oc1c(Br)cc(-c2cnc(OCc3ccc(Cl)cc3)nn2)cc1Br [Compound 20, 2,6-dibromo-4-(3-(4-chlorobenzyloxy)-1,2,4-triazin-6-yl)phenol] | 0.85 µM
Oc1c(Cl)cc(-c2cnc(OCc3ccc(F)cc3)nn2)cc1Cl [Compound 146, 2,6-dichloro-4-(3-(4-fluorobenzyloxy)-1,2,4-triazin-6-yl)phenol] | 5.21 µM
Oc1c(Br)cc(-c2cnc(OCc3cccc(Oc4ccccc4)c3)nn2)cc1Br [Compound 27, 2,6-dibromo-4-(3-(3-phenoxybenzyloxy)-1,2,4-triazin-6-yl)phenol] | 0.56 µM
Oc1c(Br)cc(-c2cnc(COc3ccc(-c4ccccc4)cc3)nn2)cc1Br [Compound 55, 4-(3-((biphenyl-4-yloxy)methyl)-1,2,4-triazin-6-yl)-2,6-dibromophenol] | 22.9 µM
CC(Oc1ncc(-c2cc(Br)c(O)c(Br)c2)nn1)c1cccc(Cl)c1 (stereo not drawn) [Compound 12, 2,6-dibromo-4-(3-(1-(3-chlorophenyl)ethoxy)-1,2,4-triazin-6-yl)phenol] | 0.84 µM
Oc1c(Br)cc(-c2cnc(OCc3cccc(Cl)c3)nn2)cc1Br [Compound 7, 2,6-dibromo-4-(3-(3-chlorobenzyloxy)-1,2,4-triazin-6-yl)phenol] | 0.72 µM
Oc1c(Br)cc(-c2cnc(OCc3ccccc3)nn2)cc1Br [Compound 19, 4-(3-(benzyloxy)-1,2,4-triazin-6-yl)-2,6-dibromophenol] | 1.37 µM
CC1(C)Cc2cccc(OCc3ncc(-c4cc(Cl)c(O)c(Cl)c4)nn3)c2O1 [Compound 50, 2,6-dichloro-4-(3-((2,2-dimethyl-2,3-dihydrobenzofuran-7-yloxy)methyl)-1,2,4-triazin-6-yl)phenol] | 15.4 µM
O=S1(=O)CCN(Cc2ccc(COc3ncc(-c4cc(Cl)c(O)c(Cl)c4)nn3)cc2)CC1 [Compound 136, formate salt] | 18.3 µM
Oc1c(Br)cc(-c2cnc(OCc3ccccn3)nn2)cc1Br [Compound 104, 2,6-dibromo-4-(3-(pyridin-2-ylmethoxy)-1,2,4-triazin-6-yl)phenol] | 16 µM
